Laboratory results: patent publication US20260076346A1, “IMMUNODEFICIENT NON-HUMAN ANIMALS FOR ASSESSING DRUG METABOLISM AND TOXICITY” (UNIVERSITY OF DUNDEE, priority 2022, published 2026)
Entries after “also recorded” stand apart in the source; their conditions may differ.

What was measured:
[1] = system: 5555 murine melanoma cell line; conditions: reported by Hirata et al.; cited from earlier work
[2] = system: 5555 murine melanoma cell line; conditions: reported by Hirata et al.; cited from earlier work; remark: listed apart in the source
[3] = system: BRAFV600E human melanoma A375 cells; experiment: A375 human melanoma xenograft in 8HUM_Rag2-/- mice, tumour volume under daily oral treatment; format: in vivo; conditions: adult female 8HUM_Rag2-/- mice
Method: Adult female 8HUM mice (11-19w, n=3) were injected s.c. in both flanks with 4.4×10^6 A375 melanoma cells, in 100 μl DMEM. Tumours were allowed to establish and on day 28 after implantation daily treatment was commenced with either vehicle (0.5% (w/v) hydroxypropylmethylcellulose, 0.2% (v/v) Tween-80; closed circles) or dabrafenib (in vehicle, open circles) suspended at 6.3 mg/ml and administered at 5 ml/kg, such that dabrafenib dose administered was 31.5 mg/kg (arrow). Tumour measurements were taken three times weekly, then daily as required, and total volume of tumours on both flanks was calculated as detailed in Methods section.
Adult female (>8<22 weeks) mice were randomly allocated into control or experimental groups and allowed to adapt to their social setting for 7d before study start. Cages were adjacent to each other on the same level of a ventilated rack, in the same room, for the study duration.
Data analysis: Dependencies of calculated tumour volumes versus time were analysed by non-linear regression using exponential growth and exponential decay functions (Prism 5 software, Graphpad, US). Rate constants in both functions were constrained to positive values to maintain consistency with the function name. Values for plateau parameters in exponential decay function were set to zero.

[4] = system: 5555 murine melanoma cells; experiment: Syngeneic graft of 5555 murine melanoma cells in 8HUM mice, tumour volume under daily oral treatment; format: in vivo, mouse; conditions: adult female 8HUM mice, n=5, 31.5 mg/kg daily p.o. from day 5 after implantation, study ended day 15, versus vehicle
Method: FIG. 1: A. Xenograft of BRAFV600E human melanoma A375 cells in Rag2^null/8HUM mice (top). Bottom-no growth of A375 cells in immunocompetent 8HUM mice. B. Growth of a murine melanoma syngeneic graft in 8HUM mice and response to dabrafenib treatment. Adult female 8HUM_Rag2−/− mice (18-21w, n=5) were injected subcutaneously (s.c.) in one flank with 3.5×10^6 5555 murine melanoma cells, in 100 μl ECM diluted 1:1 with DMEM. […] Tumour measurements were taken three times weekly, then daily as required, and tumour volume calculated as detailed in Methods section. […]
Data analysis: Dependencies of calculated tumour volumes versus time were analysed by non-linear regression using exponential growth and exponential decay functions (Prism 5 software, Graphpad, US). […]
A375 human melanoma cells (ATCC: CRL-1619; RRID: CVCL_UD29) and 5555 murine melanoma cells (19-21) were grown as directed, with the latter subject to commercial murine pathogen testing (IDEXX Bioanalytics GmbH, Germany) and both to in-house mycoplasma testing (MycoAlert Mycoplasma Detection kit, Lonza Rockland, USA) before use. Passage number was recorded for each study. […]
Once established, tumours were measured twice in two dimensions (maximum breadth and length) using digital callipers, by the same person to avoid interindividual variation. […]

| Compound | sensitivity of 5555 cell line in vitro [1] | sensitivity of 5555 cell line in vivo [2] | fit of tumour volume versus time by non-linear regression (exponential growth or decay) ([3]; A375 xenograft, 31.5 mg/kg daily p.o. d28-d35, vehicle group followed exponential growth) | total mean tumour volume of A375 xenograft (both flanks) ([3]; n=3, 31.5 mg/kg daily p.o. from d28 to d35, versus vehicle) | tumour growth / mean tumour volume of 5555 (GM5555) murine melanoma syngeneic graft [4] | tumour growth / mean tumour volume of 5555 (GM5555) murine melanoma syngeneic graft ([4]; listed as Dabrafenib) |
| --- | --- | --- | --- | --- | --- | --- |
| CCCS(=O)(=O)Nc1ccc(F)c(C(=O)c2c[nH]c3ncc(Cl)cc23)c1F [PLX4720] | sensitive | refractory | – | – | – | – |
| CC(C)(C)c1nc(-c2cccc(NS(=O)(=O)c3c(F)cccc3F)c2F)c(-c2ccnc(N)n2)s1 [dabrafenib] | – | – | follows exponential decay dependency | shrank in size | became almost undetectable; also recorded: exquisitely sensitive | successfully inhibited |
